The experiment has as its target Cyclin-dependent kinase 2 (Homo sapiens) (UniProt P24941). The experiment is described as follows: Binding affinity to human CDK2.

Structures are written as SMILES. Activity calls are given as the source filed them. The rule behind the calls is not given here.

With `O=c1c(O)c(-c2ccc(O)c(O)c2)oc2c(O[C@@H]3O[C@H](CO)[C@@H](O)[C@H](O)[C@H]3O)c(O)cc(O)c12`, the outcome was Active.
